Measured values as given in patent US6107318A, “Naphthothiazolone derivatives active on the D3 dopaminergic receptor” (Zambon Group S.p.A., priority 1997, dated 2000).
Counter-ions that a name gives are not always drawn.

Legend:
D5 = target: T1, D5 (Homo sapiens, UniProt P21918); experiment: Binding to dopaminergic receptors in cell cultures, displacement of [3H]-SCH23390, D5; details: CHO or NM9D cell membranes; [3H]-SCH23390 0.2 nM; non specific (-)cis-flupenthixol 1 μM; Cheng and Prusoff; read-out: Receptor binding (Ki nM) D5
T1 construct: expressed in transfected cells; host or cells: CHO or murine mesencephalic neuronal NM9D (sic)
Procedure: (§1) Test for evaluating the bindings to dopaminergic receptors in cell cultures
(§2) Chinese hamster ovary cells (CHO) transfected with dopaminergic receptor subtypes and murine mesencephalic neuronal (NM9D) expressing the different subtypes of such receptors were used. The cell lines were grown on Petri dishes, in a mixture of DMEM and Ham's F12 medium 1:1 supplemented with 10% foetal bovine serum (FBS), penicillin, streptomycin, geneticin (500 μg/ml) and glutamin in a humidified 5% CO2 atmosphere at 37° C. When cells reached confluence they were washed with 10 ml of PBS (KCl 2.68 mM, KH2 PO4 1.4 mM, NaCl […] and Na2 HPO4 6.4 mM) then 5 ml of lysis buffer (Tris-HCl 10 mM and EDTA 5 mM) were added to each Petri. Cells were scrapped and the solution centrifuged for 20 minutes at 48,000 gravity, 4° C. The pellet was suspended in a minimal amount of lysis buffer and homogenised for 15 seconds. […] Saturation curves were analysed using Ligand® program to have Kd (dissociation constant) and Bmax (number of receptors/mg of protein) (Munson and Rodbar, 1980Anal. Biochem., 107, 220-239). […]
(§3) The compounds of the invention were tested at increasing concentrations for evaluating their binding to the various receptors, expressed as Ki (affinity constant) obtained through the Cheng and Prusoff equation

D1 = target: T2, D1 (Homo sapiens, UniProt P21728); experiment: Binding to dopaminergic receptors in cell cultures, displacement of [3H]-SCH23390, D1; details: CHO or NM9D cell membranes; [3H]-SCH23390 0.2 nM; non specific (-)cis-flupenthixol 1 μM; Cheng and Prusoff; read-out: Receptor binding (Ki nM) D1
T2 construct: expressed in transfected cells; host or cells: CHO or murine mesencephalic neuronal NM9D (sic)
Procedure: as §1, §2, §3

D2s = target: T3, D2s (Homo sapiens, UniProt P14416); experiment: Binding to dopaminergic receptors in cell cultures, displacement of [3H]-spiperone, D2s; details: CHO or NM9D cell membranes; [3H]-spiperone 0.1 nM; non specific (+)-butaclamol 1 μM; Cheng and Prusoff; read-out: Receptor binding (Ki nM) D2s
T3 construct: expressed in transfected cells; host or cells: CHO or murine mesencephalic neuronal NM9D (sic)
Procedure: as §1, §2, §3

D4 = target: T4, D4 (Homo sapiens, UniProt P21917); experiment: Binding to dopaminergic receptors in cell cultures, displacement of [3H]-spiperone, D4; details: CHO or NM9D cell membranes; [3H]-spiperone 0.2 nM; non specific (+)-butaclamol 1 μM; Cheng and Prusoff; read-out: Receptor binding (Ki nM) D4
T4 construct: expressed in transfected cells; host or cells: CHO or murine mesencephalic neuronal NM9D (sic)
T4 sequence (P21917 1-419): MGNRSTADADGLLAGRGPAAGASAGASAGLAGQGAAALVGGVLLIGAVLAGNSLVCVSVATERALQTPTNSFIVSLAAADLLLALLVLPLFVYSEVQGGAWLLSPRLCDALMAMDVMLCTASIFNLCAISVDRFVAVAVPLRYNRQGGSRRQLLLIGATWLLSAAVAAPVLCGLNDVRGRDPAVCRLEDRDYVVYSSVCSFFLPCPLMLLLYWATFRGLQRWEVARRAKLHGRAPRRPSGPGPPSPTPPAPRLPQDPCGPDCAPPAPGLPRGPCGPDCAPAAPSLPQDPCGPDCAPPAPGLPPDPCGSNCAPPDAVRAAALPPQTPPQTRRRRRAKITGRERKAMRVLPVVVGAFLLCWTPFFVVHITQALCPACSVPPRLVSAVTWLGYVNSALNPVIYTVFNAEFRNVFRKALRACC
Procedure: as §1, §2, §3

D3 = target: T5, D3 (Homo sapiens, UniProt P35462); experiment: Binding to dopaminergic receptors in cell cultures, displacement of [3H]-spiperone, D3; details: CHO or NM9D cell membranes; [3H]-spiperone 0.3 nM; non specific (+)-butaclamol 1 μM; Cheng and Prusoff; read-out: Receptor binding (Ki nM) D3
T5 construct: expressed in transfected cells; host or cells: CHO or murine mesencephalic neuronal NM9D (sic)
Procedure: as §1, §2, §3

T2 sequence (P21728 whole entry): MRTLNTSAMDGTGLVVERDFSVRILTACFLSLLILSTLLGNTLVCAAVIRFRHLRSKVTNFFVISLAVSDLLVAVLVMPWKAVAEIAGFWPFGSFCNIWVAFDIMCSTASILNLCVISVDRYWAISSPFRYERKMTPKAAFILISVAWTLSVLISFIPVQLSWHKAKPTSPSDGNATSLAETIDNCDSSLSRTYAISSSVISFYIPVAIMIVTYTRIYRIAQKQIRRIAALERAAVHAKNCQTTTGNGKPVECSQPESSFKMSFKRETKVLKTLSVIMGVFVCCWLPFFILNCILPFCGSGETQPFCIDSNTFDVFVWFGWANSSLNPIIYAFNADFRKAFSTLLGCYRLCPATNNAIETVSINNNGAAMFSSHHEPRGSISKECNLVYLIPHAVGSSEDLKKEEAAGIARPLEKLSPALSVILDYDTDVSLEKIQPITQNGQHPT
T3 sequence (P14416 1-414 isoform P14416-2): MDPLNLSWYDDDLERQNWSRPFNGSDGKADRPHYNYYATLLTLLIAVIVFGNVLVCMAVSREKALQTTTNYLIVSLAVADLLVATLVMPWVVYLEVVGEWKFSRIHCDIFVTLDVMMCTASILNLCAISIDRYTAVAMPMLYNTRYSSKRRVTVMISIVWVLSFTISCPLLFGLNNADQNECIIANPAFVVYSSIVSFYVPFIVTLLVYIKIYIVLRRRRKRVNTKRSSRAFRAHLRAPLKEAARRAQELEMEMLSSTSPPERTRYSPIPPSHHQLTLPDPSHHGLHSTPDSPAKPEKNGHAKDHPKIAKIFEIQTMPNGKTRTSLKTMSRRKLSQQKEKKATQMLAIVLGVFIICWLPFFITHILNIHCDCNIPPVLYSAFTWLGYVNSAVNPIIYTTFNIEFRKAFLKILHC
T1 sequence (P21918 whole entry): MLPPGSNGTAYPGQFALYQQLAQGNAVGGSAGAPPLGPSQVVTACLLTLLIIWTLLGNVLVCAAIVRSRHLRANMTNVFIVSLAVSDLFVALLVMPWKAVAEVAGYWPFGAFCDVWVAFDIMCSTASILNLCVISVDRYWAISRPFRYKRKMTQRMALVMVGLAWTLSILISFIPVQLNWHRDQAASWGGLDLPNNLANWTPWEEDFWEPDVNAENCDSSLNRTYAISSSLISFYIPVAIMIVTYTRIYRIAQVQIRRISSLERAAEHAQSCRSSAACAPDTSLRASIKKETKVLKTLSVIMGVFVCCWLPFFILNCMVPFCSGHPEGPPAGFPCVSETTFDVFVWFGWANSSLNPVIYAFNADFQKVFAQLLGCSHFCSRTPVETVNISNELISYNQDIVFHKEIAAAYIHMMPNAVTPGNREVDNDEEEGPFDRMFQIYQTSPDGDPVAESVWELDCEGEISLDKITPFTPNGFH
T5 sequence (P35462 whole entry): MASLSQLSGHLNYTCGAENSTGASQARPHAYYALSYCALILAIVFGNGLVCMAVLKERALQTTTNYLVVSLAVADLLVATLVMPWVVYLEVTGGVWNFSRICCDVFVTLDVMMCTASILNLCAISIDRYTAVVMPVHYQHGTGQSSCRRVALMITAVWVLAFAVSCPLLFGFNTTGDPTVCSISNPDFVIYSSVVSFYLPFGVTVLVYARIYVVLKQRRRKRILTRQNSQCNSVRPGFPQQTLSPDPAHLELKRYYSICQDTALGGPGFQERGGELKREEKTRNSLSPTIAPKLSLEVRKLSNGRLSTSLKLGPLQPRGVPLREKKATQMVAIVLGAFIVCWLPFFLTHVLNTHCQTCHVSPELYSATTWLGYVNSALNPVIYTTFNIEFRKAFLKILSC

- Ki (D5): 9270 nM
- Ki (D1): > 10000 nM
- Ki (D2s): 9440 nM
- Ki (D4): > 10000 nM
- Ki (D3): 92 nM
SMILES: CCCN(CCCCCCNCCc1ccc(S(C)(=O)=O)cc1)[C@H]1CCc2c(ccc3sc(=O)[nH]c23)C1 [Compound 2, (S)-6-N-propyl-N-6-[2-(4-methylsulfonylphenyl)ethylamino]hexylamino-4,5,6,7-tetrahydronaphtho(1,2-d)thiazol-2(3H)-one dihydrochloride]
